{"source": "patent US4487763A", "about": "“Peptide, process for preparation thereof and use thereof” (Fujisawa Pharmaceutical Co., Ltd., priority 1979, dated 1984)", "key": {"E. coli 22": {"system": "E. coli 22", "assay": "Protective efficacy in experimental infection in mice", "format": "in vivo", "conditions": "male ICR mice, survival after four days", "procedure": "In determining the protective efficacy against experimental infections in mice, the test compound was dissolved in and diluted with sterile saline to provide prescribed concentrations of drug.\nMale ICR-strain mice, aged 4 weeks were used in groups of ten mice. E. coli 22 was cultivated overnight at 37° C. on trypticase soy agar and then were suspended in a sterile saline to obtain microbial cell concentration of 9.0×10^7 CFU/ml. Mice were inoculated intraperitoneally with 0.2 ml of the suspension. Each of the test drugs was given intraperitoneally in various doses to a group of ten mice 24 hours before challenge.\nSurvival percent were found from the number of the surviving animals after four days of injection."}, "Mice (DDY male 5-6 W)": {"system": "Mice (DDY male 5-6 W)", "assay": "Blood stream clearance of carbon", "format": "in vivo", "conditions": "carbon clearance measured 24 hours later", "procedure": "1. Carbon suspension. Rotoring drawing ink (170 mg carbon/ml.) was diluted to 1/5 of the original concentration in saline containing 1% gelatin. 2. 0.1% aqueous sodium carbonate solution. Mice (DDY male 5-6 W) were injected via the tail vein with a dose of 0.01 ml/g body weight of carbon. Blood samples were taken by means of a pointed capillary […] calibrated to hold a 50 μl and previously washed in heparin. This was plunged into the retroorbital venous sinus at the nasal angle of the eye. The samples were removed at 3 and 6 min. The blood was immediately discharged into 3.0 ml. of the sodium carbonate solution. This hemolyzed the blood and allowed the quantitation of carbon. The samples were then read in a spectrophotometer at 660 nm, the log concentration being obtained from a previously determined standard curve. The clearance value K may be determined by plotting log carbon concentration against time according to the following relationship; [formula] in which T1 and T2 represent the time in min when the sample were withdrawn and C1 and C2 represent the concentrations of carbon in the blood at the time T1 and T2, respectively. The aqueous solution of the drug as given was administered subcutaneously to mice. Twenty four hours later, blood stream clearance of carbon was measured. K value obtained with treated mice was compared with that of control mice."}}, "data": [{"substance": "D-Lac-L-Ala-γ-D-Glu(α-OH)-(L)-[D-Lac-L-Ala-γ-D-Glu(α-OH)-(L)-mesoDAP-(D)-Gly]-(D)-mesoDAP-(L)-GlyOH [Example 13 (Step 2)]", "values": [{"measurement": "Survival (%)", "setting": "E. coli 22; dose 1 mg/kg intraperitoneally 24 hours before challenge", "result": 100, "unit": "%"}, {"measurement": "Survival (%)", "setting": "E. coli 22; dose 10 mg/kg intraperitoneally 24 hours before challenge", "result": 100, "unit": "%"}, {"measurement": "K treated/K control", "setting": "Mice (DDY male 5-6 W); dose 1 mg/mouse subcutaneously", "result": 0.6}, {"measurement": "K treated/K control", "setting": "Mice (DDY male 5-6 W); dose 100 mg/mouse subcutaneously", "result": 1.6}]}]}
